Patent US7476756B2, “Alkyl-, alkenyl- and alkynylcarbamate derivatives, their preparation and their application in therapeutics” (Sanofi-Aventis, priority 2005, dated 2009)

tested on: not given; test: not given; conditions: not given

Row | melting point [°C] | SMILES
1 | 81 to 83 | CNC(=O)COC(=O)NC1CCCCCCC1 [Compound 22, 2-(Methylamino)-2-oxoethyl (cyclooct-1-yl)carbamate]
2 | 85 to 87 | CCC/C=C/CNC(=O)OCC(=O)NC [Compound 2, 2-(Methylamino)-2-oxoethyl ((2E)-hex-2-en-1-yl)carbamate]
3 | 122 to 124 | CC/C=C\CCCCNC(=O)OCC(N)=O [Compound 18, 2-Amino-2-oxoethyl ((5Z)-oct-5-en-1-yl)carbamate]
4 | 69 to 71 | CCCCCC/C=C\CCCCCCCCNC(=O)OCC(=O)NC [Compound 35, 2-(Methylamino)-2-oxoethyl ((9Z)-hexadec-9-en-1-yl)carbamate]
5 | 107 to 109 | CCCCCCCCCCCCCCCNC(=O)OCC(=O)NC [Compound 37, 2-(Methylamino)-2-oxoethyl (pentadec-1-yl)carbamate]
6 | 106 to 108 | CCCCCCCCCCCCCCNC(=O)OCC(=O)NC [Compound 33, 2-(Methylamino)-2-oxoethyl (tetradec-1-yl)carbamate]
7 | 132 to 134 | CCCCCNC(=O)OC(C)C(N)=O (stereo not drawn) [Compound 1, 2-Amino-1-methyl-2-oxoethyl (pent-1-yl)carbamate]
8 | 100 to 102 | CCCCCCCCCCC/C=C\CCCCCNC(=O)OCC(N)=O [Compound 39, 2-Amino-2-oxoethyl ((6Z)-octadec-6-en-1-yl)carbamate]
9 | 122 to 124 | C=CCCCCCCNC(=O)OCC(N)=O [Compound 20, 2-Amino-2-oxoethyl (oct-7-en-1-yl)carbamate]
10 | 171 to 173 | CNC(=O)COC(=O)NC1CCCCCCCCCCC1 [Compound 29, 2-(Methylamino)-2-oxoethyl (cyclododec-1-yl)carbamate]
11 | 72 to 74 | CCCCCCCCCCC/C=C\CCCCCNC(=O)OCC(=O)NC [Compound 40, 2-(Methylamino)-2-oxoethyl ((6Z)-octadec-6-en-1-yl)carbamate]
12 | 120 to 123 | CC/C=C\CCCCCCCCCCNC(=O)OCC(N)=O [Compound 31, 2-amino-2-oxoethyl ((11Z)-tetradec-11-en-1-yl)carbamate]
13 | 133 to 135 | CCCCCCCCCCNC(=O)OC(C)C(N)=O (stereo not drawn) [Compound 27, 2-Amino-1-methyl-2-oxoethyl (dec-1-yl)carbamate]
14 | 87 to 89 | CCCCCCCNC(=O)OCC(=O)NC [Compound 13, 2-(Methylamino)-2-oxoethyl (hept-1-yl)carbamate]
15 | 95 to 97 | CCCCCCCCCNC(=O)OCC(=O)NC [Compound 25, 2-(Methylamino)-2-oxoethyl (non-1-yl)carbamate]
16 | 127 to 129 | CCCCCC/C=C\CCCCCCCCNC(=O)OCC(N)=O [Compound 34, 2-Amino-2-oxoethyl ((9Z)-hexadec-9-en-1-yl)carbamate]
17 | 69 to 71 | CC/C=C\CCCCNC(=O)OCC(=O)NC [Compound 19, 2-(Methylamino)-2-oxoethyl ((5Z)-oct-5-en-1-yl)carbamate]
18 | 77 to 79 | CCCCCCCC/C=C/CCCCCCCCCCNC(=O)OCC(=O)NC [Compound 47, 2-(Methylamino)-2-oxoethyl ((11E)-icosa-11-en-1-yl)carbamate]
19 | 126 to 128 | CCC/C=C/CNC(=O)OCC(N)=O [Compound 3, 2-Amino-2-oxoethyl ((2E)-hex-2-en-1-yl)carbamate]
20 | 126 to 128 | CCCCC/C=C/CNC(=O)OCC(N)=O [Compound 15, 2-Amino-2-oxoethyl ((2E)-oct-2-en-1-yl)carbamate]
21 | 123 to 125 | CCCCCCNC(=O)OC(C)C(N)=O (stereo not drawn) [Compound 11, 2-Amino-1-methyl-2-oxoethyl (hex-1-yl)carbamate]

Row | melting point [°C] | SMILES
22 | 72 to 74 | CC/C=C\CCNC(=O)OCC(=O)NC [Compound 7, 2-(Methylamino)-2-oxoethyl ((3Z)-hex-3-en-1-yl)carbamate]
23 | 58 to 60 | CCCCC/C=C/C/C=C/CCCCCCCCCCNC(=O)OCC(=O)NC [Compound 46, 2-(Methylamino)-2-oxoethyl ((11E,14E)-icosa-11,14-dien-1-yl)carbamate]
24 | 82 to 84 | CCCCCCCCCCCCC(C)NC(=O)OCC(=O)NC (stereo not drawn) [Compound 36, 2-(Methylamino)-2-oxoethyl (1-methyltridecyl)carbamate]
25 | 80 to 82 | CCCCC/C=C/CNC(=O)OCC(=O)NC [Compound 14, 2-(Methylamino)-2-oxoethyl ((2E)-oct-2-en-1-yl)carbamate]
26 | 98 to 100 | CCCCCCCCCCNC(=O)OCC(=O)NC [Compound 26, 2-(Methylamino)-2-oxoethyl decylcarbamate]
27 | 62 to 64 | CCCC/C=C\CCNC(=O)OCC(=O)NC [Compound 16, 2-(Methylamino)-2-oxoethyl ((3Z)-oct-3-en-1-yl)carbamate]
28 | 79 to 81 | CC/C=C\CCCCCCCCCCNC(=O)OCC(=O)NC [Compound 32, 2-(Methylamino)-2-oxoethyl ((11Z)-tetradec-11-en-1-yl)carbamate]
29 | 138 to 140 | CC/C=C/CCNC(=O)OCC(N)=O [Compound 6, 2-Amino-2-oxoethyl ((3E)-hex-3-en-1-yl)carbamate]
30 | 103 to 105 | CCCCCCCCCCCCNC(=O)OCC(=O)NC [Compound 30, 2-(Methylamino)-2-oxoethyl (dodec-1-yl)carbamate]
31 | 72 to 74 | C=CCCCCCCNC(=O)OCC(=O)NC [Compound 21, 2-(Methylamino)-2-oxoethyl (oct-7-en-1-yl)carbamate]
32 | 113 to 115 | CCCCCCCCCCCCCCCCCCCNC(=O)OCC(=O)NC [Compound 43, 2-(Methylamino)-2-oxoethyl (nonadec-1-yl)carbamate]
33 | 113 to 115 | CCCC/C=C\CCNC(=O)OCC(N)=O [Compound 17, 2-Amino-2-oxoethyl ((3Z)-oct-3-en-1-yl)carbamate]
34 | 74 to 76 | CCC/C=C\CNC(=O)OCC(=O)NC [Compound 9, 2-(Methylamino)-2-oxoethyl ((2Z)-hex-2-en-1-yl)carbamate]
35 | 85 to 87 | CCCCCCCCCCCCCCCCCCCNC(=O)OCC(=O)NC [Compound 41, 2-(Methylamino)-2-oxoethyl ((methyl)octadec-1-yl)carbamate]
36 | 86 to 88 | CCCCCCNC(=O)OCC(=O)NC [Compound 10, 2-(Methylamino)-2-oxoethyl (hex-1-yl)carbamate]
37 | 71 to 73 | CCCCCCCCCC(C)NC(=O)OCC(=O)NC (stereo not drawn) [Compound 28, 2-(Methylamino)-2-oxoethyl (1-methyldec-1-yl)carbamate]
38 | 88 to 90 | CC/C=C/CCNC(=O)OCC(=O)NC [Compound 8, 2-(Methylamino)-2-oxoethyl ((3E)-hex-3-en-1-yl)carbamate]
39 | 130 to 132 | CCCCCCCCNC(=O)OC(C)C(N)=O (stereo not drawn) [Compound 23, 2-Amino-1-methyl-2-oxoethyl (oct-1-yl)carbamate]
40 | 102 to 104 | CCC/C=C\CNC(=O)OCC(N)=O [Compound 4, 2-Amino-2-oxoethyl ((2Z)-hex-2-en-1-yl)carbamate]
41 | 57 to 59 | CC/C=C/C/C=C/C/C=C/CCCCCCCCCCNC(=O)OCC(=O)NC [Compound 45, 2-(Methylamino)-2-oxoethyl ((11E,14E,17E)-icosa-11,14,17-trien-1-yl)carbamate]

molecular target: T1, enzyme FAAH (Fatty Acid Amido Hydrolase) (Mus musculus, UniProt O08914); test: radioenzymatic test of FAAH inhibition (hydrolysis of ((1-3H)ethanolamine)-anandamide, mouse brain membrane homogenates); format: biochemical; conditions: mouse brain membrane homogenate; 10 μM anandamide; 15 minutes at 25° C.; read-out: IC50 (concentration which inhibits the control enzymatic activity of FAAH by 50%)
T1 construct: The membrane homogenates are prepared at the time of use by homogenization of the tissues with a Polytron; from tissue; host or cells: mouse brain (minus the cerebellum), membrane homogenate
T1 sequence (O08914 1-579): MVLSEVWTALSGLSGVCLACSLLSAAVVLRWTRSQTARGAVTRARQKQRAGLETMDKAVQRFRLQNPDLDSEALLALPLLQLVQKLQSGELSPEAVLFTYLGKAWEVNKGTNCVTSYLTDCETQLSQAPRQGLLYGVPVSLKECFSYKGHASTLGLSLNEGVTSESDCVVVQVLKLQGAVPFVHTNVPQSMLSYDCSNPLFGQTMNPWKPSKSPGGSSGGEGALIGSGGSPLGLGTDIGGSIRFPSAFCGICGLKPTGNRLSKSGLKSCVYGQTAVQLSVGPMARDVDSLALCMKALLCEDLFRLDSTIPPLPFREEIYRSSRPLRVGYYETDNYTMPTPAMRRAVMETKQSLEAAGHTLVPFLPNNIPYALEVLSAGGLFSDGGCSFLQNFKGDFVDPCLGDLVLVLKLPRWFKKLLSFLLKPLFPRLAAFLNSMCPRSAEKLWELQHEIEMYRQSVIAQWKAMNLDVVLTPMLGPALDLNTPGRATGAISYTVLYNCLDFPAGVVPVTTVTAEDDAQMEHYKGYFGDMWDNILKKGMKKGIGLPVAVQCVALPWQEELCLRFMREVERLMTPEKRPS
Procedure: The compounds of the invention have formed the subject of pharmacological trials which make it possible to determine their inhibitory effect on the enzyme FAAH (Fatty Acid Amido Hydrolase).
Thus, mouse brains (minus the cerebellum) are removed and stored at −80° C. The membrane homogenates are prepared at the time of use by homogenization of the tissues with a Polytron in a 10 mM Tris-HCl buffer (pH 8) comprising 150 mM NaCl and 1 mM EDTA. The enzymatic reaction is subsequently carried out in 70 μl of buffer comprising bovine serum albumin free from fatty acids (1 mg/ml). The test compounds, at various concentrations, the ((1-^3H)ethanolamine)-anandamide (specific activity of 15-20 Ci/mmol), diluted to 10 μM with non-radiolabelled anandamide, and the membrane preparation (400 μg of frozen tissue per assay) are successively added. After 15 minutes at 25° C., the enzymatic reaction is halted by addition of 140 μl of chloroform/methanol (2:1). The mixture is stirred for 10 minutes and is then centrifuged at 3500 g for 15 minutes. An aliquot (30 μl) of the aqueous phase comprising the (1-^3H)ethanolamine is counted by liquid scintillation.

Row | IC50 [nM] | SMILES
42 | 696 | CNC(=O)COC(=O)NC1CCCCCCC1 [Compound 22, 2-(Methylamino)-2-oxoethyl (cyclooct-1-yl)carbamate]
43 | 91 | CCCCCCCNC(=O)OCC(=O)NC [Compound 13, 2-(Methylamino)-2-oxoethyl (hept-1-yl)carbamate]
44 | 154 | CCCCCCCC/C=C/CCCCCCCCCCNC(=O)OCC(=O)NC [Compound 47, 2-(Methylamino)-2-oxoethyl ((11E)-icosa-11-en-1-yl)carbamate]
45 | 89 | CCCCCCC(C)NC(=O)OCC(=O)NC (stereo not drawn) [Compound 24, 2-(Methylamino)-2-oxoethyl (1-methylhept-1-yl)carbamate]
